PubChem BioAssay AID248 (DTP/NCI, 2004)
Where “and” joins values, the source holds several entries; their conditions need not be identical. Equal entries are not always repeated. Inconclusive results and toxic doses are left out. Rule as the data show it: active = T/C of 150% or more; inactive = T/C below 125%.

Tested on: L1210 leukemia ip in BDF1 mice, survival T/C
Assay: NCI In Vivo Anticancer Drug Screen. Data for tumor model L1210 Leukemia (intraperitoneal) in B6D2F1 (BDF1) mice
Conditions: endpoint: mean survival time, higher = longer survival
How it was run: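 Each compound was tested against a transplantable tumor grown in mice. The endpoint was survival, with treated animals benchmarked against vehicle controls as a simple ratio.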

[1] = dose: 75.0 mg/kg/injection, schedule: Q04DX003 (ip), vehicle: saline
[2] = dose: 150.0 mg/kg/injection, schedule: Q04DX003 (ip), vehicle: saline
[3] = dose: 100.0 mg/kg/injection, schedule: Q04DX003 (ip), vehicle: Klucel (hydroxypropylcellulose) (HPC)
[4] = dose: 200.0 mg/kg/injection, schedule: Q04DX003 (ip), vehicle: Klucel (hydroxypropylcellulose) (HPC)
[5] = dose: 400.0 mg/kg/injection, schedule: Q04DX003 (ip), vehicle: Klucel (hydroxypropylcellulose) (HPC)
[6] = dose: 100.0 mg/kg/injection, schedule: Q01DX009 (ip), vehicle: Klucel (hydroxypropylcellulose) (HPC)
[7] = dose: 200.0 mg/kg/injection, schedule: Q01DX009 (ip), vehicle: Klucel (hydroxypropylcellulose) (HPC)
[8] = dose: 400.0 mg/kg/injection, schedule: Q01DX009 (ip), vehicle: Klucel (hydroxypropylcellulose) (HPC)
[9] = dose: 25.0 mg/kg/injection, schedule: Q01DX009 (ip), vehicle: saline
[10] = dose: 50.0 mg/kg/injection, schedule: Q01DX009 (ip), vehicle: saline
[11] = dose: 100.0 mg/kg/injection, schedule: Q04DX003 (ip), vehicle: saline
[12] = dose: 100.0 mg/kg/injection, schedule: Q01DX009 (ip), vehicle: saline
[13] = dose: 200.0 mg/kg/injection, schedule: Q01DX009 (ip), vehicle: saline
[14] = dose: 400.0 mg/kg/injection, schedule: Q01DX009 (ip), vehicle: saline
[15] = dose: 50.0 mg/kg/injection, schedule: Q01DX001 (ip), vehicle: carboxymethylcellulose (CMC)
[16] = dose: 100.0 mg/kg/injection, schedule: Q04DX002 (ip), vehicle: saline with Tween-80
[17] = dose: 400.0 mg/kg/injection, schedule: Q04DX002 (ip), vehicle: saline with Tween-80
[18] = dose: 100.0 mg/kg/injection, schedule: Q01DX001 (ip), vehicle: saline
[19] = dose: 200.0 mg/kg/injection, schedule: Q01DX001 (ip), vehicle: saline

Measured: T/C

CCCC[n+]1cccc(C#N)c1
inactive: dose: 18.75 mg/kg/injection, schedule: Q01DX009 (ip), vehicle: saline 92 % of control | dose: 37.5 mg/kg/injection, schedule: Q01DX009 (ip), vehicle: saline 101 % of control | dose: 37.5 mg/kg/injection, schedule: Q04DX003 (ip), vehicle: saline 93 % of control | dose: 75.0 mg/kg/injection, schedule: Q01DX001 (ip), vehicle: saline 98 % of control | dose: 75.0 mg/kg/injection, schedule: Q01DX009 (ip), vehicle: saline 90 % of control | [1] 93 % of control | dose: 150.0 mg/kg/injection, schedule: Q01DX001 (ip), vehicle: saline 95 % of control | [2] 91 % of control

O=C(Nc1ccc(C(=O)O)c(O)c1)Oc1ccccc1
inactive: [3] 90 % of control | [4] 98 % of control | [5] 107 % of control

C/C=C(\c1ccccc1)[N+](=O)[O-]
inactive: dose: 12.5 mg/kg/injection, schedule: Q01DX001 (ip), vehicle: acetone 100 % of control | dose: 12.5 mg/kg/injection, schedule: Q04DX003 (ip), vehicle: acetone 98 % of control | dose: 18.75 mg/kg/injection, schedule: Q01DX009 (ip), vehicle: acetone 98 % of control | dose: 25.0 mg/kg/injection, schedule: Q01DX001 (ip), vehicle: acetone 92 % of control | dose: 25.0 mg/kg/injection, schedule: Q04DX003 (ip), vehicle: acetone 98 % of control | dose: 37.5 mg/kg/injection, schedule: Q01DX009 (ip), vehicle: acetone 106 % of control | dose: 50.0 mg/kg/injection, schedule: Q01DX001 (ip), vehicle: acetone 97 % of control | dose: 50.0 mg/kg/injection, schedule: Q04DX003 (ip), vehicle: acetone 100 % of control | dose: 75.0 mg/kg/injection, schedule: Q01DX009 (ip), vehicle: acetone 88 % of control | [1] 94 % of control

CCCCCCn1c(O)c(C=N)c(=O)[nH]c1=O
inactive: [6] 100 % of control | [3] 93 % of control | [7] 99 % of control | [4] 100 % of control | [8] 97 % of control | [5] 94 % of control

O=C(N/N=C/c1ccc(Cl)cc1)c1ccccc1NC(=O)C1CC1
inactive: [6] 97 % of control | [7] 87 % of control | [8] 103 % of control

O=C1NC(=O)C(Nc2ccccc2)(c2ccccc2)N1 (centres undefined)
inactive: dose: 100.0 mg/kg/injection, schedule: Q01DX001 (ip), vehicle: Klucel (hydroxypropylcellulose) (HPC) 90 % of control | dose: 200.0 mg/kg/injection, schedule: Q01DX001 (ip), vehicle: Klucel (hydroxypropylcellulose) (HPC) 95 % of control

CC(C)CN(CC(C)C)c1nn[nH]n1
inactive: [3] 92 % of control | [4] 98 % of control | [5] 98 % of control

CN(CC#N)CC#N
inactive: [9] 105 % of control | [10] 95 % of control

BrC(Br)(Br)c1ccc2ccccc2n1
inactive: dose: 50.0 mg/kg/injection, schedule: Q01DX001 (ip), vehicle: other 109 % of control | dose: 100.0 mg/kg/injection, schedule: Q01DX001 (ip), vehicle: other 103 % of control | dose: 100.0 mg/kg/injection, schedule: Q04DX003 (ip), vehicle: saline with Tween-80 93 % of control | dose: 200.0 mg/kg/injection, schedule: Q01DX001 (ip), vehicle: other 101 % of control | dose: 200.0 mg/kg/injection, schedule: Q04DX003 (ip), vehicle: saline with Tween-80 93 % of control | dose: 400.0 mg/kg/injection, schedule: Q01DX001 (ip), vehicle: other 97 % of control | dose: 400.0 mg/kg/injection, schedule: Q04DX003 (ip), vehicle: saline with Tween-80 95 % of control

[NH-]CC(=O)[N-]CC(=O)O.[NH-]CC(=O)[N-]CC(=O)O.[Ni]
inactive: [9] 86 % of control | dose: 25.0 mg/kg/injection, schedule: Q04DX003 (ip), vehicle: saline 107 % of control | dose: 50.0 mg/kg/injection, schedule: Q04DX003 (ip), vehicle: saline 116 % of control | [11] 98 % of control and 92 % of control

CC1CCc2ccccc2N1CCN (centres undefined)
inactive: [9] 103 % of control | [10] 103 % of control | [12] 97 % of control

NCCNCCN1CC1
inactive: dose: 10.0 mg/kg/injection, schedule: Q04DX002 (ip), vehicle: saline 104 % of control | dose: 20.0 mg/kg/injection, schedule: Q04DX002 (ip), vehicle: saline 115 % of control | dose: 40.0 mg/kg/injection, schedule: Q04DX002 (ip), vehicle: saline 106 % of control

CC(C)CC(N)C(=O)OCc1ccccc1 (centres undefined)
inactive: [12] 105 % of control | [11] 97 % of control | [13] 107 % of control | dose: 200.0 mg/kg/injection, schedule: Q04DX003 (ip), vehicle: saline 101 % of control | [14] 98 % of control | dose: 400.0 mg/kg/injection, schedule: Q04DX003 (ip), vehicle: saline 97 % of control

Fc1cc(F)c2ncccc2c1
inactive: dose: 12.5 mg/kg/injection, schedule: Q01DX001 (ip), vehicle: carboxymethylcellulose (CMC) 103 % of control | dose: 25.0 mg/kg/injection, schedule: Q01DX001 (ip), vehicle: carboxymethylcellulose (CMC) 98 % of control | [15] 101 % of control | dose: 75.0 mg/kg/injection, schedule: Q01DX001 (ip), vehicle: carboxymethylcellulose (CMC) 117 % of control | dose: 150.0 mg/kg/injection, schedule: Q01DX001 (ip), vehicle: carboxymethylcellulose (CMC) 118 % of control

CCCCCCCC/C=C\CCCCCCCCNP(=O)(OCCCCCCCCCCCC)OCCCCCCCCCCCC
inactive: [16] 101 % of control | [17] 86 % of control

Cc1cc(=O)[nH]c(=O)n1C1OC(CO)C(O)C1O (centres undefined)
inactive: [18] 108 % of control | [19] 102 % of control | dose: 400.0 mg/kg/injection, schedule: Q01DX001 (ip), vehicle: saline 98 % of control

CC(=O)Oc1ccccc1[N+](=O)[O-]
inactive: [6] 106 % of control | [7] 91 % of control

OCCNCc1ccc2ccccc2n1
inactive: [1] 96 % of control | [2] 100 % of control | dose: 300.0 mg/kg/injection, schedule: Q04DX003 (ip), vehicle: saline 96 % of control

O=[N+]([O-])c1ccc(N=Nc2ccccc2)cc1
inactive: dose: 100.0 mg/kg/injection, schedule: Q01DX009 (ip), vehicle: saline with Tween-80 109 % of control | dose: 200.0 mg/kg/injection, schedule: Q01DX009 (ip), vehicle: saline with Tween-80 104 % of control | dose: 400.0 mg/kg/injection, schedule: Q01DX009 (ip), vehicle: saline with Tween-80 105 % of control

C=C(C)COc1c(C)c(C)c(OCC(=C)C)c(C)c1C
inactive: dose: 100.0 mg/kg/injection, schedule: Q01DX001 (ip), vehicle: DMSO 89 % of control | dose: 400.0 mg/kg/injection, schedule: Q01DX001 (ip), vehicle: DMSO 94 % of control

CCCCCCCCCCCCCCCCCC
inactive: dose: 100.0 mg/kg/injection, schedule: Q04DX002 (ip), vehicle: other 96 % of control | dose: 200.0 mg/kg/injection, schedule: Q04DX002 (ip), vehicle: other 92 % of control

O=C1CCCc2ccc(Cl)cc21
inactive: [12] 96 % of control | [13] 97 % of control | [14] 94 % of control

CCOC(=O)C(C(=O)O)C(=O)CCO (centres undefined)
inactive: [18] 98 % of control | [19] 94 % of control

COC1CCC(/C(C#N)=C/C2CCC(N(C)C)CC2)CC1 (centres undefined)
inactive: [16] 95 % of control | dose: 200.0 mg/kg/injection, schedule: Q04DX002 (ip), vehicle: saline with Tween-80 91 % of control | [17] 98 % of control

Cc1ccc(N=Nc2c(O)ccc3ccccc23)cc1
inactive: [15] 91 % of control | dose: 100.0 mg/kg/injection, schedule: Q01DX001 (ip), vehicle: carboxymethylcellulose (CMC) 91 % of control | dose: 200.0 mg/kg/injection, schedule: Q01DX001 (ip), vehicle: carboxymethylcellulose (CMC) 91 % of control | dose: 400.0 mg/kg/injection, schedule: Q01DX001 (ip), vehicle: carboxymethylcellulose (CMC) 91 % of control
